In patent US20250136578A1 (Kolm Therapeutics Inc., priority 2023, published 2025) one finds EC50 and IC50 data, which are given here for 17 molecules.

Structures are written as SMILES.

Experiment [1] concerns the target AR / CBP ternary complex (Homo sapiens, UniProt P10275+Q92793). The experiment can be described thus: Ternary complex formation assay (sandwich ELISA, AR capture, CBP antibody detection) in VCaP cell lysates. The format is cell-based. The following applies: treated 1.5 hours, rabbit CBP or p300 antibody detection, average, read-out: Average Ternary Complex. An outline of the steps: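 Sandwich ELISA: plates were coated with anti-AR antibody (AR441) and given lysates of VCaP cells treated 1.5 h with bifunctional compound in charcoal-stripped serum. Co-captured CBP or p300 was probed with rabbit mAbs and HRP secondary. Chemifluorescent signal (ex 570/em 585) was read at 0, 5 and 15 min.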

Experiment [2] has as its system VCaP cells. Briefly: VCaP growth inhibition assay (CTG). The format is cell-based. The following applies: Homo sapiens, 216 h, 30 pM R1881, 9 days. The method in brief: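 Growth was measured by CTG luminescence after a 9-day exposure of VCaP cells to compound (final 10 fM–100 nM, fivefold steps) in the presence of 30 pM final R1881, in phenol red-free DMEM/5% CSS. IC50 values were derived by nonlinear 4-parameter regression of RLU against concentration.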

Sequence of AR / CBP ternary complex (P10275 whole entry): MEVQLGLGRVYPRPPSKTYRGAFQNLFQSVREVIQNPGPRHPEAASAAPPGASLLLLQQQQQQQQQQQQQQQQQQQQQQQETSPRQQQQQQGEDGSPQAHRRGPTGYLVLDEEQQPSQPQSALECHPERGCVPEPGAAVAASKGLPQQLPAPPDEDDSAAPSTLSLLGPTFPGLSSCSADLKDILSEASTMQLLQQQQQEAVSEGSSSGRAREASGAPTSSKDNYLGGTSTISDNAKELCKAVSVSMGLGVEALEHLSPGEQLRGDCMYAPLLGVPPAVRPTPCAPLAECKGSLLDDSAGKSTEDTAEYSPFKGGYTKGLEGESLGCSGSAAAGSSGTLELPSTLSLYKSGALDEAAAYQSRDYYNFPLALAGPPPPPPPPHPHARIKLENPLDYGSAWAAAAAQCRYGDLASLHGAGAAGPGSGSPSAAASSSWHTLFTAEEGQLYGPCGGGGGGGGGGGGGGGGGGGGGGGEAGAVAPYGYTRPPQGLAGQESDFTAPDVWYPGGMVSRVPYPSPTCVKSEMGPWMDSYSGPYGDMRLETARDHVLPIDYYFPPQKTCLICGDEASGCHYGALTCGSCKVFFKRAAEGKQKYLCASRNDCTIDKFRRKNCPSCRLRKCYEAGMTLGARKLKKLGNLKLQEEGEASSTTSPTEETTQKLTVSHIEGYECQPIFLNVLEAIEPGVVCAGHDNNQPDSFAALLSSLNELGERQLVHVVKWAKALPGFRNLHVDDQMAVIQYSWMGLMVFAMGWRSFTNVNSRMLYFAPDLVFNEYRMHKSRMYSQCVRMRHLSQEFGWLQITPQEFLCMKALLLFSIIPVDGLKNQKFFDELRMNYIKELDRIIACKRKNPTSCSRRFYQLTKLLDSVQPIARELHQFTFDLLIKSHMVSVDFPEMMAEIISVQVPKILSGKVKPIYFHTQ
Sequence of AR / CBP ternary complex (Q92793 2-2442): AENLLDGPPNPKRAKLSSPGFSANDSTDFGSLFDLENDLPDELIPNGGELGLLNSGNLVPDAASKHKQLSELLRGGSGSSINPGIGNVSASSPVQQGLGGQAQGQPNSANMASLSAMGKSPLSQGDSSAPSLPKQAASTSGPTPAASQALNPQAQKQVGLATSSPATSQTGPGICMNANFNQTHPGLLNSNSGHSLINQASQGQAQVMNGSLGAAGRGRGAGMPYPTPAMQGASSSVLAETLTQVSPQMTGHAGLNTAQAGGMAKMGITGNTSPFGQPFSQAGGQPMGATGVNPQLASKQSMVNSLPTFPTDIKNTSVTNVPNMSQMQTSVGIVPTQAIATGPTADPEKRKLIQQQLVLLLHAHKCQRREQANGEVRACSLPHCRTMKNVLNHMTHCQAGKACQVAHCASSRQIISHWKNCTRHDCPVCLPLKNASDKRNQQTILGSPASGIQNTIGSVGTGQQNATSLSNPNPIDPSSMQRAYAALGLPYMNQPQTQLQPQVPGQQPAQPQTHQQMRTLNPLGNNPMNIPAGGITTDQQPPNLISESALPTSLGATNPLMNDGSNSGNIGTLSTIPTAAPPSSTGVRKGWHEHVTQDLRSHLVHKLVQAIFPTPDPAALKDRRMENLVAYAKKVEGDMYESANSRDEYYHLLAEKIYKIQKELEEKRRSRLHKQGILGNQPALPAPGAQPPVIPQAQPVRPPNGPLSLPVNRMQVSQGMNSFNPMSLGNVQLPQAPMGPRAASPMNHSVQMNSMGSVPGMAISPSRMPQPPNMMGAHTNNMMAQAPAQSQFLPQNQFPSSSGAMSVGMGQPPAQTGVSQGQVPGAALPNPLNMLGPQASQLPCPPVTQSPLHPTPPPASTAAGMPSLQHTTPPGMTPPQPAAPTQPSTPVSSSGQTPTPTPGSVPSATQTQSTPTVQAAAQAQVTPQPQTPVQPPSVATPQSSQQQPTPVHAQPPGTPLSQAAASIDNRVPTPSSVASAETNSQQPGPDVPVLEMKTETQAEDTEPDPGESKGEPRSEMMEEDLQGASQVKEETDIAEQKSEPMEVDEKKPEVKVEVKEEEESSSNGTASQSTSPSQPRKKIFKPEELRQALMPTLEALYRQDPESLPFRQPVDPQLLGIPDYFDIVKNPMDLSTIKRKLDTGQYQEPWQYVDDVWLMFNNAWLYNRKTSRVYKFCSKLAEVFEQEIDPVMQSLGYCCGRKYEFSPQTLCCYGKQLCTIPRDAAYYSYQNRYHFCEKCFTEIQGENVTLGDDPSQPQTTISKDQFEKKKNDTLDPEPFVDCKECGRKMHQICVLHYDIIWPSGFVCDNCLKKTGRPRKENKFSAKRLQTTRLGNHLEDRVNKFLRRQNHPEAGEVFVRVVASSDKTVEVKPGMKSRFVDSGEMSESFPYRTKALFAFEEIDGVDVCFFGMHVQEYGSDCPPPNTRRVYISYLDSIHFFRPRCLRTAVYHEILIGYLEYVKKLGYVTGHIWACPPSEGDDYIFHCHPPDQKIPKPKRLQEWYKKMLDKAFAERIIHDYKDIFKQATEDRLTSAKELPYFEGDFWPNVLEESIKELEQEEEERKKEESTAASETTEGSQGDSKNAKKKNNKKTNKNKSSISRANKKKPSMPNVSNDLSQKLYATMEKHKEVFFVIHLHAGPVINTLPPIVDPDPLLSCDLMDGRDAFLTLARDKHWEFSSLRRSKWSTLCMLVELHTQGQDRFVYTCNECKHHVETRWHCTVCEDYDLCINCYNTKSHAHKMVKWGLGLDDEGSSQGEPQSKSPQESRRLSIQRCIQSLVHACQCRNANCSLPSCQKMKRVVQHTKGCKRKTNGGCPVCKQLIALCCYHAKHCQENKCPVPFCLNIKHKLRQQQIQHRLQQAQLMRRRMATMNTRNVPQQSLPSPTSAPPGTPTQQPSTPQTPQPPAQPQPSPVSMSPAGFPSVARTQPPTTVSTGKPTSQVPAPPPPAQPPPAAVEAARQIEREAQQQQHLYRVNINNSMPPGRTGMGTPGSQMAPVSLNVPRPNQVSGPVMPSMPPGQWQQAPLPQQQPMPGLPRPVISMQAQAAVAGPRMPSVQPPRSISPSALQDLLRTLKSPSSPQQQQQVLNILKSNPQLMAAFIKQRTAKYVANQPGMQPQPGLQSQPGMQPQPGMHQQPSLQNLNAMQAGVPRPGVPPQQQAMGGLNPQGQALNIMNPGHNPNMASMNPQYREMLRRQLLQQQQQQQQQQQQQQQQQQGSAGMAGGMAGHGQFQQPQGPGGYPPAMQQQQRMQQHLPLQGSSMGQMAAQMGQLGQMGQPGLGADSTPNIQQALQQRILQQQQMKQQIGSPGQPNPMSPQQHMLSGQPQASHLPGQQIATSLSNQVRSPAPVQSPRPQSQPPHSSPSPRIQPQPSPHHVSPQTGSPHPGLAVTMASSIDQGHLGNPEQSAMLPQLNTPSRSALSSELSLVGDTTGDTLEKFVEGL

As to `Cn1cc(-c2cc3cccc(-c4cc(C5=CCN(CC6CCN(c7ccc(C(=O)N[C@H]8CC[C@H](Oc9ccc(C#N)c(Cl)c9)CC8)nn7)CC6)CC5)c5c(c4)n(C)c(=O)n5C)c3cn2)cn1` [Compound 147, N-[4-(3-chloro-4-cyano-phenoxy)cyclohexyl]-6-[4-[[4-[1,3-dimethyl-6-[3-(1-methylpyrazol-4-yl)-8-isoquinolyl]-2-oxo-benzimidazol-4-yl]-3,6-dihydro-2H-pyridin-1-yl]methyl]-1-piperidyl]pyridazine-3-carboxamide], the EC50 in experiment [1] is under 1 nM. This molecule also showed an IC50 in experiment [2] of 0.1 to 1 nM.
As for `CC(=O)N1CCc2c(c(N3CCCc4cc(-c5cnn(C)c5)c(C(F)F)cc43)nn2C2CCC3(CC2)CCN(c2ccc(C(=O)N[C@H]4CC[C@H](Oc5ccc(C#N)c(Cl)c5)CC4)nn2)CC3)C1` [Compound 112, 6-[9-[5-acetyl-3-[7-(difluorodimethyl)-6-(1-methylpyrazol-4-yl)-3,4-dihydro-2H-quinolin-1-yl]-6,7-dihydro-4H-pyrazolo[4,3-c]pyridin-1-yl]-3-azaspiro[5.5]undecan-3-yl]-N-[4-(3-chloro-4-cyano-phenoxy)cyclohexyl]pyridazine-3-carboxamide], the EC50 in experiment [1] was under 1 nM. The IC50 in experiment [2] was 0.1 to 1 nM.
On to `CC(=O)N1CCc2c(c(-c3cccc4cc(-c5ccc(CCC6CCN(c7ccc(C(=O)N[C@H]8CC[C@H](Oc9ccc(C#N)c(Cl)c9)CC8)cn7)CC6)cc5)ncc34)nn2C2CCOCC2)C1` [Compound 166, 6-[4-[2-[4-[8-(5-acetyl-1-tetrahydropyran-4-yl-6,7-dihydro-4H-pyrazolo[4,3-c]pyridin-3-yl)-3-isoquinolyl]phenyl]ethyl]-1-piperidyl]-N-[4-(3-chloro-4-cyano-phenoxy)cyclohexyl]pyridine-3-carboxamide], for which the EC50 in experiment [1] is under 1 nM. In addition, the IC50 in experiment [2] fell in the range of 0.1 to 1 nM.
For the molecule `CC(=O)N1CCc2c(c(N3CCCc4cc(-c5cscn5)c(C(F)F)cc43)nn2C2CCN([C@@H]3CCCN(c4ccc(C(=O)N[C@H]5CC[C@H](Oc6ccc(C#N)c(Cl)c6)CC5)nn4)C3)CC2)C1` [Compound 261, 6-[(3R)-3-[4-[5-acetyl-3-[7-(difluoromethyl)-6-thiazol-4-yl-3,4-dihydro-2H-quinolin-1-yl]-6,7-dihydro-4H-pyrazolo[4,3-c]pyridin-1-yl]-1-piperidyl]-1-piperidyl]-N-[4-(3-chloro-4-cyano-phenoxy)cyclohexyl]pyridazine-3-carboxamide], the EC50 in experiment [1] is 1 to 10 nM. In experiment [2], the IC50 is 1 to 100 nM.
Take `CC(=O)N1CCc2c(c(N3CCCc4cc(-c5cnn(C)c5)c(C(F)F)cc43)nn2C2CCN(CC3CCN(c4ccc(C(=O)N[C@H]5CC[C@H](Oc6ccc(C#N)c(Cl)c6)CC5)nn4)CC34CC4)CC2)C1` (stereo partly shown) [Compound 231, 6-[8-[[4-[5-acetyl-3-[7-(difluoromethyl)-6-(1-methylpyrazol-4-yl)-3,4-dihydro-2H-quinolin-1-yl]-6,7-dihydro-4H-pyrazolo[4,3-c]pyridin-1-yl]-1-piperidyl]methyl]-5-azaspiro[2.5]octan-5-yl]-N-[4-(3-chloro-4-cyano-phenoxy)cyclohexyl]pyridazine-3-carboxamide]: the EC50 in experiment [1] is under 1 nM. This molecule displayed an IC50 in experiment [2] of at most 0.1 nM.
Take `CC(=O)N1CCc2c(c(N3CCCc4ccc(C(F)F)cc43)nn2C2CCN(C(=O)C3CCN(c4ccc(C(=O)N[C@H]5CC[C@H](Oc6ccc(C#N)c(Cl)c6)CC5)nn4)CC3)CC2)C1` [Compound 62, 6-[4-[4-[5-acetyl-3-[7-(difluoromethyl)-3,4-dihydro-2H-quinolin-1-yl]-6,7-dihydro-4H-pyrazolo[4,3-c]pyridin-1-yl]piperidine-1-carbonyl]-1-piperidyl]-N-[4-(3-chloro-4-cyano-phenoxy)cyclohexyl]pyridazine-3-carboxamide]: the EC50 in experiment [1] is under 1 nM. The same molecule had an IC50 in experiment [2] of at most 0.1 nM.
Regarding `CC(=O)N1CCc2c(c(N3CCCc4cc(-c5cnn(C)c5)c(C(F)F)cc43)nn2[C@H]2CC[C@@H](N3CCC4(CC3)CN(c3ccc(C(=O)N[C@H]5CC[C@H](Oc6ccc(C#N)c(Cl)c6)CC5)nn3)C4)CC2)C1` [Compound 192, 6-[7-[4-[5-acetyl-3-[7-(difluoromethyl)-6-(1-methylpyrazol-4-yl)-3,4-dihydro-2H-quinolin-1-yl]-6,7-dihydro-4H-pyrazolo[4,3-c]pyridin-1-yl]cyclohexyl]-2,7-diazaspiro[3.5]nonan-2-yl]-N-[4-(3-chloro-4-cyano-phenoxy)cyclohexyl]pyridazine-3-carboxamide], the EC50 in experiment [1] is under 1 nM. Also, in experiment [2], the IC50 is at most 0.1 nM.
Consider `CC(=O)N1CCc2c(c(N3CCCc4cc(C#N)ccc43)nn2C2CCN(CC3(C)CCN(c4ccc(C(=O)N[C@H]5CC[C@H](Oc6ccc(C#N)c(Cl)c6)CC5)nn4)CC3)CC2)C1` [Compound 102, 6-[4-[[4-[5-acetyl-3-(6-cyano-3,4-dihydro-2H-quinolin-1-yl)-6,7-dihydro-4H-pyrazolo[4,3-c]pyridin-1-yl]-1-piperidyl]methyl]-4-methyl-1-piperidyl]-N-[4-(3-chloro-4-cyano-phenoxy)cyclohexyl]pyridazine-3-carboxamide], for which, in experiment [1], the EC50 was under 1 nM. The same molecule yielded an IC50 in experiment [2] of 0.1 to 1 nM.
For the molecule `CC(=O)N1CCc2c(c(N3CCCc4cc(C#N)ncc43)nn2C2CCN(C(=O)C3CCN(c4ccc(C(=O)N[C@H]5CC[C@H](Oc6ccc(C#N)c(Cl)c6)CC5)nn4)CC3)CC2)C1` [Compound 69, 6-[4-[4-[5-acetyl-3-(6-cyano-3,4-dihydro-2H-1,7-naphthyridin-1-yl)-6,7-dihydro-4H-pyrazolo[4,3-c]pyridin-1-yl]piperidine-1-carbonyl]-1-piperidyl]-N-[4-(3-chloro-4-cyano-phenoxy)cyclohexyl]pyridazine-3-carboxamide], the EC50 in experiment [1] is under 1 nM. In experiment [2], this molecule registered an IC50 of at most 0.1 nM.
Turning to `CC(=O)N1CCc2c(c(N3CCCc4cc(C#N)ccc43)nn2C2CCN(C[C@H]3CCN(c4ccc(C(=O)N[C@H]5CC[C@H](Oc6ccc(C#N)c(Cl)c6)CC5)nn4)C[C@@H]3C)CC2)C1` (stereo in doubt) [Compound 105, 6-[4-[[4-[5-acetyl-3-(6-cyano-3,4-dihydro-2H-quinolin-1-yl)-6,7-dihydro-4H-pyrazolo[4,3-c]pyridin-1-yl]-1-piperidyl]methyl]-3-methyl-1-piperidyl]-N-[4-(3-chloro-4-cyano-phenoxy)cyclohexyl]pyridazine-3-carboxamide], in experiment [1], the EC50 is under 1 nM. This molecule also came in with an IC50 in experiment [2] of 0.1 to 1 nM.
With `CC(=O)N1CCc2c(c(-c3cccc4cc(-c5ccc(N6CC(C7CCN(c8ccc(C(=O)N[C@H]9CC[C@H](Oc%10ccc(C#N)c(Cl)c%10)CC9)nn8)CC7)C6)nc5)ncc34)nn2C2CCOCC2)C1` [Compound 181], in experiment [1], the EC50 is under 1 nM. In addition, the IC50 in experiment [2] is at most 0.1 nM.
Consider `CC(=O)N1CCc2c(c(-c3cccc4cc(-c5cnn(C)c5)ncc34)nn2C2CCN(CCC3CCN(c4ccc(C(=O)N[C@H]5CC[C@H](Oc6ccc(C#N)c(Cl)c6)CC5)nn4)CC3)CC2)C1` [Compound 5, 6-[4-[2-[4-[5-acetyl-3-[3-(1-methylpyrazol-4-yl)-8-isoquinolyl]-6,7-dihydro-4H-pyrazolo[4,3-c]pyridin-1-yl]-1-piperidyl]ethyl]-1-piperidyl]-N-[4-(3-chloro-4-cyano-phenoxy)cyclohexyl]pyridazine-3-carboxamide], for which the EC50 in experiment [1] was under 1 nM. In experiment [2], this molecule had an IC50 of at most 0.1 nM.
`CC(=O)N1CCc2c(c(-c3cccc4cc(-c5cnn(C6CCN(C7CCN(c8ccc(C(=O)N[C@H]9CC[C@H](Oc%10ccc(C#N)c(Cl)c%10)CC9)nn8)CC7)CC6)c5)ncc34)nn2C2CCOCC2)C1` [Compound 183]: the EC50 in experiment [1] is under 1 nM. For the same molecule, the IC50 in experiment [2] is 0.1 to 1 nM.
Consider `CC(=O)N1CCc2c(c(-c3cccc4cc(-c5cnn(C)c5)ncc34)nn2C2CCN(CC3CCN(c4ccc(C(=O)N[C@H]5CC[C@H](Oc6ccc(C#N)c(Cl)c6)CC5)nn4)CC3(C)C)CC2)C1` (stereo partly shown) [Compound 280], for which the EC50 in experiment [1] is under 1 nM. Also, the IC50 in experiment [2] is at most 0.1 nM.
For `Cn1c(=O)n(C)c2cc(-c3cccc4cc(-c5ccc(CCC6CCN(c7ccc(C(=O)N[C@H]8CC[C@H](Oc9ccc(C#N)c(Cl)c9)CC8)nn7)CC6)nc5)ncc34)ccc21` [Compound 52, N-[4-(3-chloro-4-cyano-phenoxy)cyclohexyl]-6-[4-[2-[5-[8-(1,3-dimethyl-2-oxo-benzimidazol-5-yl)-3-isoquinolyl]-2-pyridyl]ethyl]-1-piperidyl]pyridazine-3-carboxamide], in that order: 1 to 10 nM and over 100 nM.
Regarding `C[C@@H]1CC(=O)Nc2cccc(N3CCCc4cc(-c5cnn(CCC6CCN(c7ccc(C(=O)N[C@H]8CC[C@H](Oc9ccc(C#N)c(Cl)c9)CC8)nn7)CC6)c5)c(C(F)F)cc43)c2N1` [Compound 36, N-[4-(3-chloro-4-cyano-phenoxy)cyclohexyl]-6-[4-[2-[4-[7-(difluoromethyl)-1-[(4R)-4-methyl-2-oxo-1,3,4,5-tetrahydro-1,5-benzodiazepin-6-yl]-3,4-dihydro-2H-quinolin-6-yl]pyrazol-1-yl]ethyl]-1-piperidyl]pyridazine-3-carboxamide], in experiment [1], the EC50 was in the range of 10 to 100 nM. The same molecule returned an IC50 in experiment [2] of 1 to 100 nM.
Take `CC(=O)N1CCc2c(c(N3CCCc4cc(-c5cnn(C)c5)c(C(F)F)cc43)nn2[C@H]2CC[C@H](C3CCC4(CC3)CN(c3ccc(C(=O)N[C@H]5CC[C@H](Oc6ccc(C#N)c(Cl)c6)CC5)nn3)C4)CC2)C1` [Compound 241, 6-[7-[4-[5-acetyl-3-[7-(difluoromethyl)-6-(1-methylpyrazol-4-yl)-3,4-dihydro-2H-quinolin-1-yl]-6,7-dihydro-4H-pyrazolo[4,3-c]pyridin-1-yl]cyclohexyl]-2-azaspiro[3.5]nonan-2-yl]-N-[4-(3-chloro-4-cyano-phenoxy)cyclohexyl]pyridazine-3-carboxamide]: in experiment [1], the EC50 was 1 to 10 nM. Moreover, the IC50 in experiment [2] was 0.1 to 1 nM.
